Literature values in patent US20030176652A1, “Human and mouse beta-defensins, antimicrobial peptides” (priority 2001, published 2003).
Several values for one entry are separate records, joined by “and”; a condition that tells them apart may be missing. Equal entries are not always repeated. Where two headings read alike, the source gives them in different places. Where no end group is shown, it is not given here.

Experiments:
[1] = test system: Staphylococcus haemolyticus
Haemophilus influenzae = test system: Haemophilus influenzae; set-up: MIC50 / MIC90: unit not given beside the values
Enterococcus spp. = test system: Enterococcus spp.; set-up: MIC50 / MIC90: unit not given beside the values
Neisseria gonorrhoeae = test system: Neisseria gonorrhoeae; set-up: MIC90: unit not given beside the values
Streptococcus agalactiae = test system: Streptococcus agalactiae; set-up: MIC50 / MIC90: unit not given beside the values
Nocardia asteroides = test system: Nocardia asteroides; set-up: MIC50 / MIC90: unit not given beside the values
Campylobacter jejuni = test system: Campylobacter jejuni; set-up: MIC90: unit not given beside the values
Haemophilus ducreyi = test system: Haemophilus ducreyi; set-up: unit not given beside the values
Bacillus spp. = test system: Bacillus spp.; set-up: MIC90: unit not given beside the values
Streptococcus pyogenes = test system: Streptococcus pyogenes; set-up: unit not given beside the values
[2] = test system: Bordetella bronchiseptica; set-up: MIC50 / MIC90: unit not given beside the values
Bacteroides fragilis = test system: Bacteroides fragilis; set-up: MIC50 / MIC90: unit not given beside the values
[3] = test system: Staphylococcus epidermidis; set-up: unit not given beside the values
Staphylococcus hominis = test system: Staphylococcus hominis; set-up: unit not given beside the values
Streptococcus spp. = test system: Streptococcus spp.; set-up: unit not given beside the values
[4] = test system: Haemophilus parainfluenzae; set-up: MIC50 / MIC90: unit not given beside the values
Staphylococcus aureus [5] = test system: Staphylococcus aureus; set-up: MIC50 / MIC90: unit not given beside the values
Neisseria meningitidis = test system: Neisseria meningitidis; set-up: MIC50 / MIC90: unit not given beside the values
Listeria monocytogenes = test system: Listeria monocytogenes; set-up: unit not given beside the values
[6] = test system: Branhamella (Moraxella) catarrhalis; details: Branhamella (Moraxella) catarrhalis (β-lactamase producer)
Campylobacter pylori = test system: Campylobacter pylori; set-up: MIC50: unit not given beside the values
Mycoplasma hominis = test system: Mycoplasma hominis; set-up: MIC50 / MIC90: unit not given beside the values
[7] = test system: cells expressing the human CCR6
Staphylococcus aureus [8] = details: physiological salt concentrations
[9] = Haemophilus influenzae (non β-lactamase producer)
[10] = Haemophilus influenzae (penicillin resistant)
[11] = Haemophilus influenzae (penicillin susceptible)
[12] = Haemophilus influenzae (β-lactamase producer)
[13] = Neisseria gonorrhoeae (non β-lactamase producer)
[14] = Staphylococcus aureus (methicillin resistant)
[15] = Staphylococcus aureus (penicillin resistant)
[16] = Staphylococcus aureus (penicillin susceptible)

CC[C@H]1OC(=O)[C@H](C)[C@@H](O[C@H]2C[C@@](C)(OC)[C@@H](O)[C@H](C)O2)[C@H](C)[C@@H](O[C@@H]2O[C@H](C)C[C@H](N(C)C)[C@H]2O)[C@](C)(O)C[C@@H](C)C(=O)[C@H](C)[C@@H](O)[C@]1(C)O [ERYTHROMYCIN, erythromycin]
MIC50 [1]: 64
MIC90 [1]: 64
MIC50 (Haemophilus influenzae; Haemophilus influenzae): 2 and 1
MIC90 (Haemophilus influenzae; Haemophilus influenzae): 2 and 4
Range (Haemophilus influenzae; Haemophilus influenzae): 0.5-8 and 0.25-16
MIC50 (Haemophilus influenzae; [9]): 2 and 4
MIC90 (Haemophilus influenzae; [9]): 4 and 8
Range (Haemophilus influenzae; [9]): 0.06-8
MIC50 (Haemophilus influenzae; [10]): 8
MIC90 (Haemophilus influenzae; [10]): 16
Range (Haemophilus influenzae; [10]): 8-16
MIC50 (Haemophilus influenzae; [11]): 8
MIC90 (Haemophilus influenzae; [11]): 16
Range (Haemophilus influenzae; [11]): 0.25-16
MIC50 (Haemophilus influenzae; [12]): 4 and 2
MIC90 (Haemophilus influenzae; [12]): 8 and 4
MIC50 (Enterococcus spp.): 2
MIC90 (Enterococcus spp.): 32
Range (Enterococcus spp.): 0.06-32
MIC90 (Neisseria gonorrhoeae; Neisseria gonorrhoeae): 1
Range (Neisseria gonorrhoeae; Neisseria gonorrhoeae): 0.0075-8
MIC90 (Neisseria gonorrhoeae; [13]): 2 and 1
Range (Neisseria gonorrhoeae; [13]): 0.015-4 and 0.03-2
MIC90 (Neisseria gonorrhoeae; Neisseria gonorrhoeae (β-lactamase producer)): 2 and 4
MIC50 (Streptococcus agalactiae): 0.03
MIC90 (Streptococcus agalactiae): 0.03
Range (Streptococcus agalactiae): 0.03-0.25 and 0.015-0.06
MIC50 (Corynebacterium JK): 2
MIC90 (Corynebacterium JK): 64
MIC50 (Streptococcus pneumoniae): 0.06 and 0.03
MIC90 (Streptococcus pneumoniae): 0.03 and 0.06
Range (Streptococcus pneumoniae): 0.03-0.25 and 0.015-0.06 and 0.015-0.25
MIC50 (Nocardia asteroides): 8
MIC90 (Nocardia asteroides): 8
Range (Nocardia asteroides): 0.25-8
MIC90 (Campylobacter jejuni): 4 and 2
Range (Campylobacter jejuni): 0.5-8
MIC50 (Haemophilus ducreyi): 0.004
MIC90 (Haemophilus ducreyi): 0.06
MIC90 (Bacillus spp.): 2
Range (Bacillus spp.): 0.03-2
MIC50 (Streptococcus pyogenes): 0.06 and 0.03
MIC50 (Borrelia burgdorferi): 0.03
MIC90 (Borrelia burgdorferi): 0.06
MIC50 [2]: 8
MIC90 [2]: 32
Range [2]: 4-32
MIC50 (Bacteroides fragilis): 1
MIC90 (Bacteroides fragilis): 8
Range (Bacteroides fragilis): 0.25-16
MIC50 [3]: 64
MIC90 [3]: 64
MIC50 (Staphylococcus hominis): 64
MIC90 (Staphylococcus hominis): 64
MIC50 (Streptococcus spp.): 0.03
MIC50 [4]: 2
MIC90 [4]: 4
Range [4]: 0.5-8
MIC50 (Staphylococcus aureus [5]; Staphylococcus aureus): 0.5
MIC50 (Staphylococcus aureus [5]; [14]): 64 and 32
MIC90 (Staphylococcus aureus [5]; [14]): 64 and 32
MIC50 (Staphylococcus aureus [5]; Staphylococcus aureus (methicillin susceptible)): 0.5
MIC90 (Staphylococcus aureus [5]; [15]): 32
Range (Staphylococcus aureus [5]; [15]): 0.25-32
MIC50 (Staphylococcus aureus [5]; [16]): 0.5
MIC90 (Staphylococcus aureus [5]; [16]): 0.5
Range (Staphylococcus aureus [5]; [16]): 0.06-32
MIC50 (Neisseria meningitidis): 1
MIC90 (Neisseria meningitidis): 8
Range (Neisseria meningitidis): 0.5-8
MIC50 (Enterococcus faecium): 1
MIC90 (Enterococcus faecium): 64
Range (Enterococcus faecium): 0.06-64
MIC50 (Listeria monocytogenes): 0.5
MIC90 (Ureaplasma urealyticum): 32
Range [6]: 0.06-1 and 0.03-0.25 and 0.06-8
MIC50 (Campylobacter pylori): 0.5
Range (Campylobacter pylori): 0.25-16

CCC[C@@H]1C[C@@H](C(=O)N[C@@H]([C@H]2O[C@H](SC)[C@H](O)[C@@H](O)[C@H]2O)[C@@H](C)O)N(C)C1 [LINCOMYCIN, lincomycin]
MIC50 (Mycoplasma pneumoniae): 8
MIC90 (Mycoplasma pneumoniae): 32
Range (Mycoplasma pneumoniae): 2-32
MIC50 (Staphylococcus aureus [5]; Staphylococcus aureus): 1
MIC90 (Staphylococcus aureus [5]; Staphylococcus aureus): 1
Range (Staphylococcus aureus [5]; Staphylococcus aureus): 0.5-512
MIC50 (Ureaplasma urealyticum): 128
MIC90 (Ureaplasma urealyticum): 128
Range (Ureaplasma urealyticum): 64-128
MIC50 (Mycoplasma hominis): 2
MIC90 (Mycoplasma hominis): 4
Range (Mycoplasma hominis): 0.5-16

CCL20: the only reported chemokine ligand for CCR6
chemokine activity relative to HBD-1 and HBD-2 ([7]; greater than that of HBD-1 and HBD-2): approximately 10 fold

DEFB3: protein encoded by the known human β-defensin gene DEFB3 (GIINTLQKYYCRVRGGRCAVLSCLPKEEQIGKCSTRGRKCCRRKK; not fully specified (bridges); cysteine pairing not given here; UniProt P81534 23-67, looked up)
salt sensitivity of bactericidal activity against Staphylococcus aureus (Staphylococcus aureus [8]): not salt-sensitive

HBD-1: known human β-defensin peptide, product of DEFB1 (DHYNCVSSGGQCLYSACPIFTKIQGTCYRGKAKCCK; not fully specified (bridges); cysteine pairing not given here; UniProt P60022 33-68, looked up)
chemotaxis of cells expressing the human CCR6 [7]: selectively chemotactic

HBD-2: HBD-2 protein encoded by the DEFB2 gene (GIGDPVTCLKSGAICHPVFCPRRYKQIGTCGLPGTKCCKKP; UniProt O15263 24-64, looked up)
histamine release from mast cells (mast cells): stimulates mast cells to release histamine
chemotaxis of cells expressing the human CCR6 [7]: selectively chemotactic
